According to the NIST ThermoML archive (doi:10.1021/acs.jced.5b00893):
Numbers after ± are expanded uncertainties.

Details: 293.15 K; 101.33 kPa; Liquid; Vibrating tube method

Point of comparison: `CN1CCN(C)C1=O` [1,3-dimethyl-2-imidazolidinone], mass density 1058 ± 2 kg/m3. Against it:
- O=C1CCCO1 [γ-butyrolactone] — higher, 1129 ± 2 kg/m3
- CCCCOC(=O)C(C)O (centres undefined) [butyl 2-hydroxypropanoate] — lower, 982 ± 2 kg/m3
- CN1CCCN(C)C1=O [1,3-dimethyl-3,4,5,6-tetrahydro-2(1H)-pyrimidinone] — higher, 1065 ± 2 kg/m3
